Where “and” joins values, the source holds several entries; their conditions need not be identical. Equal entries are not always repeated.
Test system: patients with active rheumatoid arthritis
Experiment: Study A: EULAR response (moderate/good)
Assay type: in vivo, human
Details: for Good EULAR response (%) / Moderate EULAR response (%): LOCF
Text: In one embodiment, the invention provides a method for determining the efficacy of a TNFα inhibitor, including a human TNFα antibody, for treating RA in a subject, using the EULAR response of a subject or patient population. European League Against Rheumatism (EULAR) Response Criteria uses a Disease Activity Score (DAS) for defining response. To be classified as responders, patients should have a significant change in DAS and also low current disease activity. Response is defined as both: (a) change in disease activity from baseline and (b) the level of disease activity reached during follow-up. Criteria used to define DAS include: Ritchie articular index, swollen joint count (44-joint count), erythrocyte sedimentation rate, and […]. A modified version of the DAS criteria, DAS28, uses a 28-joint count for swollen and tender joints. Response is defined as a combination of a significant change from baseline and the level of disease activity attained. Good response is defined as a significant decrease in DAS (>1.2) and a low level of disease activity (< or =2.4). Non-response is defined as a decrease < or =0.6, or a decrease >0.6 and < or =1.2 with an attained DAS >3.7. Any other scores are regarded as moderate responses. Thus, three categories are defined: good, moderate, and non-responders. For details of EULAR criteria see Van Gestel et al. (1996) 39(1):34-40, incorporated by reference herein.
The study design included a 12 week open label treatment period followed by a continuation period examining safety and efficacy. […] The main inclusion criteria for the study were the following: males and females ≧18 years; rheumatoid arthritis (RA; defined by ACR criteria) for ≧3 months; unsatisfactory response (or intolerance) to at least one prior DMARD; and patients with active RA (DAS28≧3.2). Baseline demographics and disease severity is shown below in Table 1:
Efficacy of adalimumab treatment was determined by examining signs and symptoms of the patients. Various assays were used to determine efficacy, including ACR response, EULAR response, TJC and SJC count, and DAS28.
The objective of this study was to evaluate the impact of prior biologic therapies, in particular TNF-antagonists etanercept (ETA) and infliximab (INF), on key efficacy parameters of adalimumab therapy in patients with long-standing RA in clinical practice. To evaluate the impact of prior biological therapies, patients with moderate to severe RA enrolled at 450 sites in 11 European countries plus Australia (Study A). Patients with moderate to severe RA and an inadequate response to prior DMARD therapies were enrolled in a 12-week open-label study with an optional extension phase. […] Patients with previous biologic treatment must have received the last administration at least 8 weeks before enrollment Routine safety and efficacy data were collected at weeks 2, 6, and 12, and every 8 weeks in the extension phase. Efficacy parameters included ACR20, ACR50, ACR70, EULAR Response, HAQ, tender and swollen joint count (TJC28/SJC28), and DAS28. […] For this interim analysis, efficacy outcomes were evaluated after 12 weeks of therapy per the number and type of prior biologics used: None, any (ETA, INF, anakinra), ETA only, INF only, or ETA and INF but not anakinra.
Patients with long-standing, moderate to severe RA were enrolled in Study A at 450 sites in 12 different countries. The study design for Study A is outlined in FIG. 21. […] Previous treatment with other biologics was allowed up to 8 weeks before enrollment. Patients met the following inclusion criteria: Age ≧18 years; RA (defined by American College of Rheumatology criteria) for ≧3 months; active, moderate to severe RA (Disease Activity Score (DAS28)≧3.2); unsatisfactory response or intolerance to at least one prior DMARD, including biologics. Efficacy assessments were performed at weeks 0 (baseline), 2, 6, and 12. […]

[1] = Week 12, No prior ETA and/or INF (n=5711)
[2] = Week 12, Prior ETA and/or INF (n=899)
[3] = Week 12, concomitant Cq/Hcq + mtx (n=153)
[4] = Week 12, concomitant LEF only (n=557)
[5] = Week 12, concomitant MTX + LEF (n=123)
[6] = Week 12, concomitant MTX only (n=1561)
[7] = Week 12, concomitant QC/HQC (n=85)
[8] = Week 12, concomitant SSZ only (n=89)
[9] = Wk 12, concomitant MTX Im 15 mg (N=76), no other DMARD
[10] = Wk 12, concomitant MTX Iv 15 mg (N=23), no other DMARD
[11] = Wk 12, concomitant MTX Sc 15 mg (N=37), no other DMARD
[12] = Wk 12, concomitant MTX oral 15 mg (N=405), no other DMARD
[13] = Wk 12, concomitant MTX oral ≦7.5 (N=127), no other DMARD
[14] = Wk 12, concomitant MTX oral ≧20 mg (N=216), no other DMARD
[15] = week 12, concomitant hydroxychloroquine exclusively
[16] = week 12, concomitant leflunomide exclusively
[17] = week 12, concomitant mtx exclusively
[18] = week 12, concomitant sulfasalazine exclusively
[19] = week 12, prior biologic: ETA + INF

adalimumab: human anti-TNF mAb (HUMIRA, Abbott Laboratories), described in U.S. Pat. No. 6,090,382 as D2E7
Good EULAR response (12 weeks, N=2008 analysis): 34%
Moderate EULAR response (12 weeks, N=2008 analysis): 82%
Moderate EULAR response (12 weeks, no prior response to ETA and INF): 50%
Good EULAR response (%) (Week 12): 32%
Moderate EULAR response (%) (Week 12): 81%
Good EULAR [1]: 35 % of patients
Moderate EULAR [1]: 84 % of patients
Good EULAR [2]: 23 % of patients
Moderate EULAR [2]: 76 % of patients
Good EULAR [3]: 40 % of patients
Moderate EULAR [3]: 88 % of patients
Good EULAR response [4]: 31%
Moderate EULAR response [4]: 79%
Good EULAR response [5]: 29%
Moderate EULAR response [5]: 86%
Good EULAR response (Week 12, concomitant MTX + SSZ): 41%
Moderate EULAR response (Week 12, concomitant MTX + SSZ): 89%
Good EULAR response [6]: 39%
Moderate EULAR response [6]: 84%
Good EULAR response [7]: 25%
Moderate EULAR response [7]: 85%
Good EULAR response [8]: 39%
Moderate EULAR response [8]: 75%
Good EULAR response (%) (Week 28): 37%
Moderate EULAR response (%) (Week 28): 81%
Good EULAR response (%) (Week 36): 37%
Moderate EULAR response (%) (Week 36): 82%
Good EULAR response (%) (Week 52): 38%
Moderate EULAR response (%) (Week 52): 82%
Good EULAR response [9]: 38%
Moderate EULAR response [9]: 80%
Good EULAR response [10]: 41%
Moderate EULAR response [10]: 86%
Good EULAR response [11]: 25%
Moderate EULAR response [11]: 86%
Good EULAR response [12]: 39%
Moderate EULAR response [12]: 86%
Good EULAR response [13]: 36%
Moderate EULAR response [13]: 84%
Good EULAR response [14]: 50%
Moderate EULAR response [14]: 89%
at least a Moderate EULAR response (week 2, French patients): 64%
Good EULAR response (week 12, 1 prior biologic): 25%
Moderate EULAR response (week 12, 1 prior biologic): 78%
Good EULAR response (week 12, 2 prior biologics): 11%
Moderate EULAR response (week 12, 2 prior biologics): 76%
Good EULAR response (week 12, 3 prior biologics): 8%
Moderate EULAR response (week 12, 3 prior biologics): 75%
at least a Moderate EULAR response (week 12, French patients): 80%
Good EULAR response (week 12, all patients): 34%
Moderate EULAR response (week 12, all patients): 83%
Good EULAR [15]: 25 % of patients
Moderate EULAR [15]: 75 % of patients
Good EULAR [16]: 31 % of patients
Moderate EULAR [16]: 79 % of patients
Good EULAR [17]: 39 % of patients
Moderate EULAR [17]: 84 % of patients
Good EULAR [18]: 31 % of patients
Moderate EULAR [18]: 79 % of patients
Good EULAR response (week 12, no prior biologic): 34%
Moderate EULAR response (week 12, no prior biologic): 81%
Good EULAR (week 12, prior anakinra): 36 % of patients
Moderate EULAR (week 12, prior anakinra): 75 % of patients
Good EULAR (week 12, prior biologic (any)): 22 % of patients
Moderate EULAR (week 12, prior biologic (any)): 77 % of patients
Good EULAR response (week 12, prior etanercept only): 25% and 24%
Moderate EULAR response (week 12, prior etanercept only): 76%
Good EULAR response (week 12, prior infliximab only): 22%
Moderate EULAR response (week 12, prior infliximab only): 80%
Good EULAR (week 12, prior biologic: Any): 23 % of patients
Moderate EULAR (week 12, prior biologic: Any): 75 % of patients
Good EULAR (week 12, prior biologic: ETA): 21 % of patients
Moderate EULAR (week 12, prior biologic: ETA): 74 % of patients
Good EULAR [19]: 12 % of patients
Moderate EULAR [19]: 61 % of patients
Good EULAR (week 12, prior biologic: INF): 25 % of patients
Moderate EULAR (week 12, prior biologic: INF): 78 % of patients
Good EULAR (week 12, prior biologic: None): 39 % of patients
Moderate EULAR (week 12, prior biologic: None): 82 % of patients

Source: patent US20120171123A1, “USES AND COMPOSITIONS FOR TREATMENT OF RHEUMATOID ARTHRITIS” (priority 2006, published 2012)
